Data as given in ChEMBL document CHEMBL1250443, “Microarray-based method for monitoring yeast overexpression strains reveals small-molecule targets in TOR pathway” (Nat Chem Biol, 2006).

Columns and labels:
[1] = Inhibition of TOR signaling in wild-type Saccharomyces cerevisiae transformed with overexpression plasmids assessed as increased YCL049C gene expression by microarray
[2] = Inhibition of TOR signaling in wild-type Saccharomyces cerevisiae transformed with overexpression plasmids assessed as increased PDR3 gene expression by microarray
[3] = Inhibition of TOR signaling in wild-type Saccharomyces cerevisiae transformed with overexpression plasmids assessed as increased STM1 gene expression by microarray
[4] = Inhibition of TOR signaling in wild-type Saccharomyces cerevisiae transformed with overexpression plasmids assessed as decreased YMR034C gene expression by microarray
[5] = Inhibition of TOR signaling in wild-type Saccharomyces cerevisiae transformed with overexpression plasmids assessed as increased IML2 gene expression by microarray
[6] = Inhibition of TOR signaling in wild-type Saccharomyces cerevisiae transformed with overexpression plasmids assessed as decreased RTT101 gene expression by microarray
[7] = Inhibition of TOR signaling in wild-type Saccharomyces cerevisiae transformed with overexpression plasmids assessed as increased YDL025C gene expression by microarray
[8] = Inhibition of TOR signaling in wild-type Saccharomyces cerevisiae transformed with overexpression plasmids assessed as decreased DCR2 gene expression by microarray
Saccharomyces cerevisiae [9] = assay: Increase of YDR514C gene expression in wild-type Saccharomyces cerevisiae transformed with overexpression plasmids by microarray; assay type: functional
[10] = Inhibition of TOR signaling in wild-type Saccharomyces cerevisiae transformed with overexpression plasmids assessed as increased GPM3 gene expression by microarray
[11] = Inhibition of TOR signaling in wild-type Saccharomyces cerevisiae transformed with overexpression plasmids assessed as decreased NRG1 gene expression by microarray
[12] = Inhibition of TOR signaling in wild-type Saccharomyces cerevisiae transformed with overexpression plasmids assessed as decreased OLE1 gene expression by microarray
[13] = Inhibition of TOR signaling in wild-type Saccharomyces cerevisiae transformed with overexpression plasmids assessed as decreased YPT11 gene expression by microarray
[14] = Inhibition of TOR signaling in wild-type Saccharomyces cerevisiae transformed with overexpression plasmids assessed as increased NCL1 gene expression by microarray
[15] = Inhibition of TOR signaling in wild-type Saccharomyces cerevisiae transformed with overexpression plasmids assessed as decreased GIS4 gene expression by microarray
[16] = Inhibition of TOR signaling in wild-type Saccharomyces cerevisiae transformed with overexpression plasmids assessed as increased ALD6 gene expression by microarray
[17] = Inhibition of TOR signaling in wild-type Saccharomyces cerevisiae transformed with overexpression plasmids assessed as decreased CAJ1 gene expression by microarray
Saccharomyces cerevisiae [18] = assay: Decrease of RIM11 gene expression in wild-type Saccharomyces cerevisiae transformed with overexpression plasmids by microarray; assay type: functional
[19] = Inhibition of TOR signaling in wild-type Saccharomyces cerevisiae transformed with overexpression plasmids assessed as increased RTT106 gene expression by microarray
[20] = Inhibition of TOR signaling in wild-type Saccharomyces cerevisiae transformed with overexpression plasmids assessed as increased YPR153W gene expression by microarray
[21] = Inhibition of TOR signaling in wild-type Saccharomyces cerevisiae transformed with overexpression plasmids assessed as decreased YDL186W gene expression by microarray
[22] = Inhibition of TOR signaling in wild-type Saccharomyces cerevisiae transformed with overexpression plasmids assessed as decreased SUT2 gene expression by microarray
[23] = Inhibition of TOR signaling in wild-type Saccharomyces cerevisiae transformed with overexpression plasmids assessed as increased CDC5 gene expression by microarray
[24] = Inhibition of TOR signaling in wild-type Saccharomyces cerevisiae transformed with overexpression plasmids assessed as decreased PEX7 gene expression by microarray
[25] = Inhibition of TOR signaling in wild-type Saccharomyces cerevisiae transformed with overexpression plasmids assessed as decreased MSB3 gene expression by microarray
[26] = Inhibition of TOR signaling in wild-type Saccharomyces cerevisiae transformed with overexpression plasmids assessed as decreased CDC16 gene expression by microarray
[27] = Inhibition of TOR signaling in wild-type Saccharomyces cerevisiae transformed with overexpression plasmids assessed as increased URA5 gene expression by microarray
[28] = Inhibition of TOR signaling in wild-type Saccharomyces cerevisiae transformed with overexpression plasmids assessed as decreased FUS3 gene expression by microarray
[29] = Inhibition of TOR signaling in wild-type Saccharomyces cerevisiae transformed with overexpression plasmids assessed as decreased YNL305C gene expression by microarray
[30] = Inhibition of TOR signaling in wild-type Saccharomyces cerevisiae transformed with overexpression plasmids assessed as increased HCA4 gene expression by microarray
[31] = Inhibition of TOR signaling in wild-type Saccharomyces cerevisiae transformed with overexpression plasmids assessed as decreased YKL174C gene expression by microarray
[32] = Inhibition of TOR signaling in wild-type Saccharomyces cerevisiae transformed with overexpression plasmids assessed as increased SAS10 gene expression by microarray
[33] = Inhibition of TOR signaling in wild-type Saccharomyces cerevisiae transformed with overexpression plasmids assessed as increased NOG1 gene expression by microarray
[34] = Inhibition of TOR signaling in wild-type Saccharomyces cerevisiae transformed with overexpression plasmids assessed as increased TIF2 gene expression by microarray
[35] = Inhibition of TOR signaling in wild-type Saccharomyces cerevisiae transformed with overexpression plasmids assessed as increased SRP72 gene expression by microarray
[36] = Inhibition of TOR signaling in wild-type Saccharomyces cerevisiae transformed with overexpression plasmids assessed as decreased APM2 gene expression by microarray
[37] = Inhibition of TOR signaling in wild-type Saccharomyces cerevisiae transformed with overexpression plasmids assessed as increased THI21 gene expression by microarray
Saccharomyces cerevisiae [38] = assay: Increase of HMI1 gene expression in wild-type Saccharomyces cerevisiae transformed with overexpression plasmids by microarray; assay type: functional
Saccharomyces cerevisiae [39] = assay: Decrease of FET4 gene expression in wild-type Saccharomyces cerevisiae transformed with overexpression plasmids by microarray; assay type: functional
[40] = Inhibition of TOR signaling in wild-type Saccharomyces cerevisiae transformed with overexpression plasmids assessed as increased WRS1 gene expression by microarray
Saccharomyces cerevisiae [41] = assay: Increase of FMP38 gene expression in wild-type Saccharomyces cerevisiae transformed with overexpression plasmids by microarray; assay type: functional
[42] = Inhibition of TOR signaling in wild-type Saccharomyces cerevisiae transformed with overexpression plasmids assessed as increased DSL1 gene expression by microarray
[43] = Inhibition of TOR signaling in wild-type Saccharomyces cerevisiae transformed with overexpression plasmids assessed as increased CDC54 gene expression by microarray
Saccharomyces cerevisiae [44] = assay: Decrease of YJL051W gene expression in wild-type Saccharomyces cerevisiae transformed with overexpression plasmids by microarray; assay type: functional
Saccharomyces cerevisiae [45] = assay: Decrease of SGN1 gene expression in wild-type Saccharomyces cerevisiae transformed with overexpression plasmids by microarray; assay type: functional
[46] = Inhibition of TOR signaling in wild-type Saccharomyces cerevisiae transformed with overexpression plasmids assessed as decreased REH1 gene expression by microarray

- fold change (FC) [1]: 2.1
- fold change (FC) [2]: 14.4
- fold change (FC) [3]: 5.7
- fold change (FC) [4]: -4.4
- fold change (FC) [5]: 24.4
- fold change (FC) [6]: -3.3
- fold change (FC) [7]: 2.5
- fold change (FC) [8]: -5.9
- fold change (FC) [10]: 2.5
- fold change (FC) [11]: -2.3
- fold change (FC) [12]: -3.2
- fold change (FC) [13]: -3.1
- fold change (FC) [14]: 7.4
- fold change (FC) [15]: -7.2
- fold change (FC) [16]: 3
- fold change (FC) [17]: -5.6
- fold change (FC) [19]: 8.3
- fold change (FC) [20]: 2.1
- fold change (FC) [21]: -3.3
- fold change (FC) [22]: -3.8
- fold change (FC) [23]: 3.4
- fold change (FC) [24]: -2.8
- fold change (FC) [25]: -2
- fold change (FC) [26]: -2.3
- fold change (FC) [27]: 2.2
- fold change (FC) [28]: -3.2
- fold change (FC) [29]: -2.5
- fold change (FC) [30]: 2.9
- fold change (FC) [31]: -5.6
- fold change (FC) [32]: 2.3
- fold change (FC) [33]: 2.9
- fold change (FC) [34]: 2.6
- fold change (FC) [35]: 3.4
- fold change (FC) [36]: -2.4
- fold change (FC) [37]: 2.2
- fold change (FC) [40]: 2.8
- fold change (FC) [42]: 2.4
- fold change (FC) [43]: 4.5
- fold change (FC) [46]: -2.2
Structure (SMILES): CO[C@H]1C[C@@H]2CC[C@@H](C)[C@@](O)(O2)C(=O)C(=O)N2CCCC[C@H]2C(=O)O[C@H]([C@H](C)C[C@@H]2CC[C@@H](O)[C@H](OC)C2)CC(=O)[C@H](C)/C=C(\C)[C@@H](O)[C@@H](OC)C(=O)[C@H](C)C[C@H](C)/C=C/C=C/C=C/1C [SIROLIMUS]
- fold change (FC) (Saccharomyces cerevisiae [9]): -3.1
- fold change (FC) (Saccharomyces cerevisiae [18]): 2.9
- fold change (FC) (Saccharomyces cerevisiae [38]): -2.3
- fold change (FC) (Saccharomyces cerevisiae [39]): -5.1
- fold change (FC) (Saccharomyces cerevisiae [41]): -3.2
- fold change (FC) (Saccharomyces cerevisiae [44]): -2.5
- fold change (FC) (Saccharomyces cerevisiae [45]): -2.1
